Data as given in patent US20160106106A1, “DRUG-RESISTANT MICROBE AND VARIANT MICROBE DISINFECTANT CONTAINING CHLOROUS ACID AQUEOUS SOLUTION” (HONBU SANKEI CO., LTD., priority 2013, published 2016).
Like-named read-outs stand apart in the source and are kept apart here.

What was measured:
[1] = tested on: contaminating microbes in urine (MDRP); test: Growth suppressing effect against contaminating microbes in urine (MDRP); assay type: cell-based, Pseudomonas aeruginosa; settings: 10 ppm, 50 ppm, 100 ppm, FIGS. 5 and 6
Experimental: (§1) The testing method was in accordance with the above-described Examples. The samples prepared as stated above were used.
(§2) Tests were conducted twice using similar samples.

[2] = tested on: MRSA; test: Growth suppressing effect against contaminating microbes in urine (MRSA); assay type: cell-based, Staphylococcus aureus; settings: 10 ppm, 50 ppm, 100 ppm, FIG. 6
Experimental: as §1, §2

[3] = tested on: Escherichia coli O157 sakai strain (1996, RIMD0509952) on chicken meat (breast meat)
[4] = tested on: Campylobacter jejuni JCM2013 on chicken meat (breast meat)
Experimental: 1) Enterohemorrhagic Escherichia coli O157: Escherichia coli O157 sakai strain (1996, RIMD0509952) 2) Campylobacter: Campylobacter jejuni JCM2013
2) Campylobacter: Campylobacter jejuni JCM2013 (selected medium: CCDA plate medium)
The selected medium was streaked. A single colony of tested microbes cultured for 48 hours at 37° C. in microaerophilic conditions was extracted with a platinum loop. The colony was then inoculated in a 50 mL×3 BHI medium, shaken and cultured under aerobic conditions for 48 hours at 37° C. (shake rate: 100 rpm).
Chicken meat (breast meat): About 2 kg of domestic (location unknown) chicken breast meat that was purchased the day before the tests was used.
Each cultured microbial solution was centrifuged (rate of centrifugation: 6000 rpm). The liquid medium of the supernatant was disposed. Then, the microbial solution prepared by diluting with sterilized saline to approximately 10^7 was put into a manually operated spray in the same amount to make a 10^6 microbe suspension.

[5] = tested on: Microbes of the genus Paenibacillus; test: Microbe disinfecting effect on microbes isolated from isolator, Paenibacillus; assay type: cell-based; settings: average ± S.D.
Experimental: (§3) In the present Example, since the isolator for raising microbe-free mice was contaminated by environmental microbes, microbes were isolated from the isolator, and microbe disinfecting effects were examined in vitro using various antiseptics of interest.
(§4) Three species of microbes were isolated to analyze 16SrDNA.
(§5) (1) A single colony of each isolated microbe that was cultured in a BHI agar medium was cultured for two days at 37° C. in 5 mL of BHI medium. (2) After collecting microbes by centrifuging (3000×g, 4° C., 10 min) the culturedmicrobial solution, the microbes were washed twice with sterile saline (0.85%) to prepare a microbial solution of about 10^7 CFU/ml (Inoculam value). (3) Each agent of interest was prepared by diluting with sterile ion exchange water to have a predetermined concentration. 9 mL of each diluent was dispensed into a sterilized test tube. (4) 1 mL of the microbial solution prepared in (2) was added to the agent-containing test tube. A vortex mixer was used to mix well. (5) 1 mL was sampled from the test tube of (4) at a predetermined time. The sampling was added to and mixed with 0.05 mol/L sodium thiosulfate solution for neutralization. (6) 1 mL of the solution after the neutralization treatment was spread on a petri dish. The solution was pour-plate cultured for 24 hours at 37° C. in a BHI agar medium. The number of surviving microbes that had grown was measured.
(§6) The operation was performed three times, and microbial disinfection was evaluated by average value±standard deviation (S. D.)

[6] = tested on: Microbes of the genus Bacillus; test: Microbe disinfecting effect on microbes isolated from isolator, Bacillus; assay type: cell-based; settings: average ± S.D.
Experimental: as §3, §4
as §5, with “(2) After collecting microbes by centrifuging (3000×g, 4° C., 10 min) the culturedmicrobial solution, the microbes were washed twice with sterile saline (0.85%) to prepare a microbial solution of about 10^7 CFU/ml (Inoculam value).” left out
as §6

[7] = Sampling 3: after soaking 30 minutes at 400 ppm, raw material:liquid = 1:10
[8] = Sampling 4: after soaking 30 minutes at 400 ppm, washing and draining
[9] = Sampling 5: after soaking 30 minutes at 400 ppm, washing, storage for 24 hours at 4° C.

`OCl` [Sodium hypochlorite] was tested, and the growth suppressing effect [1] was “growth suppressing effect”, the growth suppressing effect [2] was “growth suppressing effect” and the “number of E. coli O-157 on the chicken meat” value [3, 7] was 3.3 × 10^4 cfu/mL. For the same compound, the “number of E. coli O-157 on the chicken meat” value [3, 8] was 1.6 × 10^4 cfu/mL, the “number of E. coli O-157 on the chicken meat” value [3, 9] was 5.0 × 10^4 cfu/mL and the “number of Campylobacter on the chicken meat” value (from here on “number of Campylobacter”) [4, 7] was 2.5 × 10^5 cfu/mL. The “number of Campylobacter” value [4, 8] was 3.2 × 10^5 cfu/mL, the “number of Campylobacter” value [4, 9] was 4.8 × 10^5 cfu/mL and the “number of surviving microbes” value ([5]; 200 ppm, 5 min) was 4.80 ± 0.25 log10 cfu/mL. The “number of surviving microbes” value ([5]; 200 ppm, 10 min) was 4.86 ± 0.41 log10 cfu/mL, the “number of surviving microbes” value ([5]; 200 ppm, 30 min) was 3.75 ± 0.53 log10 cfu/mL and the “number of surviving microbes” value ([5]; 500 ppm, 5 min) was 4.07 ± 0.12 log10 cfu/mL. The “number of surviving microbes” value ([5]; 500 ppm, 10 min) was 3.61 ± 0.09 log10 cfu/mL, the “number of surviving microbes” value ([5]; 500 ppm, 30 min) was 3.61 ± 0.26 log10 cfu/mL and the “number of surviving microbes” value ([5]; 1000 ppm, 5 min) was <2.00 log10 cfu/mL. The “number of surviving microbes” value ([5]; 1000 ppm, 10 min) was <2.00 log10 cfu/mL, the “number of surviving microbes” value ([5]; 1000 ppm, 30 min) was <2.00 log10 cfu/mL and the “number of surviving microbes” value ([6]; 200 ppm, 5 min) was 5.60 ± 0.22 log10 cfu/mL. The “number of surviving microbes” value ([6]; 200 ppm, 10 min) was 5.53 ± 0.62 log10 cfu/mL, the “number of surviving microbes” value ([6]; 200 ppm, 30 min) was 5.34 ± 0.34 log10 cfu/mL and the “number of surviving microbes” value ([6]; 500 ppm, 5 min) was 5.55 ± 0.45 log10 cfu/mL. For the same compound, the “number of surviving microbes” value ([6]; 500 ppm, 10 min) was 5.49 ± 0.28 log10 cfu/mL, the “number of surviving microbes” value ([6]; 500 ppm, 30 min) was 4.85 ± 0.32 log10 cfu/mL and the “number of surviving microbes” value ([6]; 1000 ppm, 5 min) was 3.55 ± 0.46 log10 cfu/mL.

For Sodium chlorite, the growth suppressing effect [1] was “growth suppressing effect” and the growth suppressing effect [2] was “growth suppressing effect”.
